Source: ChEMBL document CHEMBL4765425, “Synthesis of 1,3,4-oxadiazole derivatives with anticonvulsant activity and their binding to the GABA receptor” (Eur J Med Chem, 2020)
Calls of active or inactive are those of the source. No cut-off for these calls is given here.

Tests used:
[1] = test system: Mus musculus; test: Anticonvulsant activity in Kunming mouse assessed as reduction in MES-induced seizure at 30 mg/kg, ip measured after 30 mins; format: functional, organism-based
[2] = Neurotoxicity in Kunming mouse at 300 mg/kg, ip measured after 30 mins by rotarod test; format: toxicity, organism-based; conditions: in vivo, 0.5 h
[3] = Protection index, ratio of TD50 for neurotoxicity in ip dosed Kunming mouse to ED50 for anticonvulsant activity in ip dosed MES-induced Kunming mouse; format: toxicity, organism-based; conditions: in vivo, read-out: TI
[4] = Neurotoxicity in Kunming mouse at 100 mg/kg, ip measured after 30 mins by rotarod test; format: toxicity, organism-based; conditions: in vivo, 0.5 h
[5] = Neurotoxicity in ip dosed Kunming mouse measured after 30 mins by rotarod test; format: toxicity, organism-based; conditions: in vivo
[6] = test system: Mus musculus; test: Anticonvulsant activity in Kunming mouse assessed as reduction in MES-induced seizure at 100 mg/kg, ip measured after 30 mins; format: functional, organism-based
[7] = test system: Mus musculus; test: Anticonvulsant activity in ip dosed Kunming mouse assessed as reduction in ScPTZ-induced seizure measured after 30 mins; format: functional; conditions: 0.5 h
[8] = Protection index, ratio of TD50 for neurotoxicity in ip dosed Kunming mouse to ED50 for anticonvulsant activity in ip dosed ScPTZ-induced Kunming mouse; format: toxicity, organism-based; conditions: in vivo, read-out: TI
[9] = Displacement of [3H]flunitrazepam from GABA-A receptor benzodiazepine site in mouse cerebellum synaptosomal membrane; format: subcellular, Synaptosome
[10] = test system: Mus musculus; test: Anticonvulsant activity in ip dosed Kunming mouse assessed as reduction in MES-induced seizure measured after 30 mins; format: functional; conditions: 0.5 h
[11] = test system: Mus musculus; test: Anticonvulsant activity in Kunming mouse assessed as reduction in ScPTZ-induced seizure at 100 mg/kg, ip measured after 30 mins; format: functional, organism-based
[12] = test system: Rattus norvegicus; test: Anxiolytic activity in Wistar rat assessed as increase in time spent in open sided arms at 1 mg/kg, ip measured for 5 mins by elevated plus maze test; format: functional, organism-based
[13] = test system: Mus musculus; test: Anticonvulsant activity in Kunming mouse assessed as reduction in MES-induced seizure at 2 mg/kg, ip measured after 30 mins; format: functional, organism-based
[14] = test system: Mus musculus; test: Anticonvulsant activity in Kunming mouse assessed as reduction in ScPTZ-induced seizure at 30 mg/kg, ip measured after 30 mins; format: functional, organism-based
[15] = test system: Mus musculus; test: Anticonvulsant activity in Kunming mouse assessed as reduction in ScPTZ-induced seizure at 300 mg/kg, ip measured after 30 mins; format: functional, organism-based
[16] = test system: Mus musculus; test: Anticonvulsant activity in Kunming mouse assessed as reduction in MES-induced seizure at 300 mg/kg, ip measured after 30 mins; format: functional, organism-based
[17] = Neurotoxicity in Kunming mouse at 30 mg/kg, ip measured after 30 mins by rotarod test; format: toxicity, organism-based; conditions: in vivo, 0.5 h
[18] = test system: Rattus norvegicus; test: Effect on GABA level in Wistar rat brain assessed as increase in GABA level at 30 mg/kg, ip measured after 2 hrs; format: functional, organism-based
[19] = test system: Rattus norvegicus; test: Effect on GABA level in Wistar rat brain assessed as increase in GABA level at 30 mg/kg, ip measured after 7 days; format: functional, organism-based; conditions: time 7.0 day
[20] = test system: Rattus norvegicus; test: Anxiolytic activity in Wistar rat assessed as increase in time spent in open sided arms at 1 mg/kg, ip measured for 5 mins in presence of GABAA receptor antagonist by elevated plus maze test; format: functional, organism-based

Compound | Activity [1] | Activity [2] | selectivity ratio [3] | Activity [4] | TD50 at 0.5 h [5] | Activity [6] | ED50 [7] | selectivity ratio [8] | IC50 [9] | ED50 [10] | Activity [11] | Activity [12] | Activity [13] | Activity [14] | Activity [15] | Activity [16] | Activity [17] | Activity [18] | Activity [19] | Activity [20]
CCCCCSc1nnc(COc2ccc(-n3cnnc3)cc2)o1 | Active | Non-Toxic | 22.5 | Non-Toxic | 421 mg/kg | Active | 27.9 mg/kg | 15.1 | 3430 nM | 18.7 mg/kg | Active | – | – | – | – | – | – | – | – | –
CN1C(=O)CN=C(c2ccccc2)c2cc(Cl)ccc21 [DIAZEPAM] | – | – | – | – | – | – | – | – | 42 nM | – | – | Active | Active | – | – | – | – | – | – | –
CCCCCCCSc1nnc(COc2ccc(-n3cnnc3)cc2)o1 | inactive | Non-Toxic | – | Non-Toxic | – | – | – | – | – | – | – | – | – | inactive | Active | Active | – | – | – | –
CC(=O)Nc1ccc(OCc2nnc(SCc3ccccc3F)o2)cc1 | – | Non-Toxic | – | Non-Toxic | – | – | – | – | – | – | – | – | – | inactive | Active | Active | – | – | – | –
O=C1CCc2cc(OCc3nnc(SCc4ccc(C(F)(F)F)cc4)o3)ccc2N1 | – | Non-Toxic | 16.2 | Non-Toxic | 376 mg/kg | Active | 27.6 mg/kg | 13.6 | 5280 nM | 23.1 mg/kg | Active | – | – | – | – | – | – | – | – | –
NC(=O)N1c2ccccc2C=Cc2ccccc21 [CARBAMAZEPINE] | Active | – | 6.4 | – | – | – | – | – | – | 11.8 mg/kg | – | – | – | – | – | – | Non-Toxic | – | – | –
CCCCCCSc1nnc(COc2ccc3c(c2)CCC(=O)N3)o1 | Active | Non-Toxic | 44.7 | Non-Toxic | 466 mg/kg | Active | 17.9 mg/kg | 26 | 880 nM | 10.4 mg/kg | Active | – | – | – | – | – | – | – | – | –
CCCCCSc1nnc(COc2ccc3c(c2)CCC(=O)N3)o1 | Active | Non-Toxic | 64.6 | Non-Toxic | 575 mg/kg | Active | 10.2 mg/kg | 56.4 | 110 nM | 8.9 mg/kg | Active | Active | – | Active | – | – | – | Active | Active | inactive
